Laboratory results published in PubChem BioAssay AID2060885 (Molecular Pharmacology Branch, DTP, NCI, 2025).

Tested on: NCI-H23 complex spheroids with HUVEC/MSC, viability
Test: Anticancer human tumor NCI-H23 cell line growth inhibition [RAS];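 also: spheroids exposed to compound for 7 days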;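 as to viability, T/C: 100% = DMSO vehicle control viability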
Details: for IC50: curve of first compound; for viability, T/C: stronger effect = lower value
Summary of the method: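 Tumour cells grown as complex spheroids with HUVEC endothelial cells and mesenchymal stem cells, treated with RAS pathway inhibitor combinations. Each agent spans half-log steps from near clinical Cmax, or 10 microM where Cmax is unknown.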

[1] = second compound 0.0316 µM, first compound 0.0316 µM
[2] = second compound 0.0316 µM, first compound 0.1 µM
[3] = second compound 0.1 µM, first compound 0.0316 µM
[4] = second compound 0.1 µM, first compound 0.1 µM
[5] = second compound 0.316 µM, first compound 0.0316 µM
[6] = second compound 0.316 µM, first compound 0.1 µM
[7] = second compound 1 µM, first compound 0.0316 µM
[8] = second compound 1 µM, first compound 0.1 µM

Compound: C[C@@H](NC(=O)c1ncnc(N)c1Cl)c1ncc(C(=O)Nc2cc(C(F)(F)F)c(Cl)cn2)s1 + CCn1c(-c2cccnc2C(C)OC)c2c3cc(ccc31)N1CCOC(CC(NC(=O)C(C(C)C)N(C)C(=O)C3(F)CCN(C(=O)C#CC(C)(C)N(C)C)CC3)C(=O)N3CCCC(N3)C(=O)OCC(C)(C)C2)C1
- IC50 (second compound 0.000949 µM): < 31.6 nM
- IC50 (second compound 0.003 µM): < 31.6 nM
- IC50 (second compound 0.00949 µM): < 31.6 nM
- IC50 (second compound 0.03 µM): < 31.6 nM
- IC50 (second compound 0.0949 µM): < 31.6 nM
- IC50 (second compound 0.3 µM): < 31.6 nM
- viability, T/C (second compound 0.000949 µM, first compound 0.0316 µM): 36.4%
- viability, T/C (second compound 0.000949 µM, first compound 0.1 µM): 32.5%
- viability, T/C (second compound 0.000949 µM, first compound 0.316 µM): 24.2%
- viability, T/C (second compound 0.000949 µM, first compound 1 µM): 34.2%
- viability, T/C (second compound 0.000949 µM, first compound 3.16 µM): 32.5%
- viability, T/C (second compound 0.000949 µM, first compound 10 µM): 25.4%
- viability, T/C (second compound 0.003 µM, first compound 0.0316 µM): 33%
- viability, T/C (second compound 0.003 µM, first compound 0.1 µM): 31.1%
- viability, T/C (second compound 0.003 µM, first compound 0.316 µM): 29.7%
- viability, T/C (second compound 0.003 µM, first compound 1 µM): 33.3%
- viability, T/C (second compound 0.003 µM, first compound 3.16 µM): 31.2%
- viability, T/C (second compound 0.003 µM, first compound 10 µM): 25.3%
- viability, T/C (second compound 0.00949 µM, first compound 0.0316 µM): 32.8%
- viability, T/C (second compound 0.00949 µM, first compound 0.1 µM): 27.5%
- viability, T/C (second compound 0.00949 µM, first compound 0.316 µM): 30.9%
- viability, T/C (second compound 0.00949 µM, first compound 1 µM): 30.9%
- viability, T/C (second compound 0.00949 µM, first compound 3.16 µM): 30.8%
- viability, T/C (second compound 0.00949 µM, first compound 10 µM): 24.5%
- viability, T/C (second compound 0.03 µM, first compound 0.0316 µM): 30.7%
- viability, T/C (second compound 0.03 µM, first compound 0.1 µM): 30.1%
- viability, T/C (second compound 0.03 µM, first compound 0.316 µM): 28.1%
- viability, T/C (second compound 0.03 µM, first compound 1 µM): 29.3%
- viability, T/C (second compound 0.03 µM, first compound 3.16 µM): 26.9%
- viability, T/C (second compound 0.03 µM, first compound 10 µM): 27.9%
- viability, T/C (second compound 0.0949 µM, first compound 0.0316 µM): 25.8%
- viability, T/C (second compound 0.0949 µM, first compound 0.1 µM): 29.3%
- viability, T/C (second compound 0.0949 µM, first compound 0.316 µM): 31.6%
- viability, T/C (second compound 0.0949 µM, first compound 1 µM): 28.6%
- viability, T/C (second compound 0.0949 µM, first compound 3.16 µM): 23.6%
- viability, T/C (second compound 0.0949 µM, first compound 10 µM): 28.4%
- viability, T/C (second compound 0.3 µM, first compound 0.0316 µM): 27.3%
- viability, T/C (second compound 0.3 µM, first compound 0.1 µM): 27.4%
- viability, T/C (second compound 0.3 µM, first compound 0.316 µM): 31%
- viability, T/C (second compound 0.3 µM, first compound 1 µM): 23.1%
- viability, T/C (second compound 0.3 µM, first compound 3.16 µM): 26.3%
- viability, T/C (second compound 0.3 µM, first compound 10 µM): 27.4%

Compound: Cc1nc(N2CCC3(CC2)COC(C)C3N)c(CO)nc1Sc1ccnc(N)c1Cl (stereo unspecified) + C=CC(=O)N1CCN(c2nc(OCC3CCCN3C)nc3c(F)c(-c4nc(N)cc(C)c4C(F)(F)F)c(Cl)cc23)C(C)C1
- IC50 (second compound 0.00316 µM): < 31.6 nM
- IC50 (second compound 0.01 µM): < 31.6 nM
- IC50 (second compound 0.0316 µM): < 31.6 nM
- IC50 (second compound 0.1 µM): < 31.6 nM
- IC50 (second compound 0.316 µM): < 31.6 nM
- IC50 (second compound 1 µM): < 31.6 nM
- viability, T/C (second compound 0.00316 µM, first compound 0.0316 µM): 47.4%
- viability, T/C (second compound 0.00316 µM, first compound 0.1 µM): 48.5%
- viability, T/C (second compound 0.00316 µM, first compound 0.316 µM): 32%
- viability, T/C (second compound 0.00316 µM, first compound 1 µM): 27%
- viability, T/C (second compound 0.00316 µM, first compound 3.16 µM): 31.7%
- viability, T/C (second compound 0.00316 µM, first compound 10 µM): 25.4%
- viability, T/C (second compound 0.01 µM, first compound 0.0316 µM): 44.3%
- viability, T/C (second compound 0.01 µM, first compound 0.1 µM): 42.3%
- viability, T/C (second compound 0.01 µM, first compound 0.316 µM): 26.7%
- viability, T/C (second compound 0.01 µM, first compound 1 µM): 28.5%
- viability, T/C (second compound 0.01 µM, first compound 3.16 µM): 22.6%
- viability, T/C (second compound 0.01 µM, first compound 10 µM): 16.4%
- viability, T/C [1]: 36%
- viability, T/C [2]: 33.6%
- viability, T/C (second compound 0.0316 µM, first compound 0.316 µM): 24.7%
- viability, T/C (second compound 0.0316 µM, first compound 1 µM): 26.7%
- viability, T/C (second compound 0.0316 µM, first compound 3.16 µM): 21.1%
- viability, T/C (second compound 0.0316 µM, first compound 10 µM): 20%
- viability, T/C [3]: 37.2%
- viability, T/C [4]: 35.5%
- viability, T/C (second compound 0.1 µM, first compound 0.316 µM): 25.8%
- viability, T/C (second compound 0.1 µM, first compound 1 µM): 23.9%
- viability, T/C (second compound 0.1 µM, first compound 3.16 µM): 19.7%
- viability, T/C (second compound 0.1 µM, first compound 10 µM): 17.2%
- viability, T/C [5]: 31.1%
- viability, T/C [6]: 31.6%
- viability, T/C (second compound 0.316 µM, first compound 0.316 µM): 30.2%
- viability, T/C (second compound 0.316 µM, first compound 1 µM): 23.2%
- viability, T/C (second compound 0.316 µM, first compound 3.16 µM): 23.3%
- viability, T/C (second compound 0.316 µM, first compound 10 µM): 17.5%
- viability, T/C [7]: 36.6%
- viability, T/C [8]: 32.8%
- viability, T/C (second compound 1 µM, first compound 0.316 µM): 26.6%
- viability, T/C (second compound 1 µM, first compound 1 µM): 18.6%
- viability, T/C (second compound 1 µM, first compound 3.16 µM): 22.7%
- viability, T/C (second compound 1 µM, first compound 10 µM): 17.9%

Compound: CC(C)n1nc(-c2ccc3oc(N)nc3c2)c2c(N)ncnc21 + C#Cc1c(F)ccc2cc(O)cc(-c3ncc4c(N5CC6CCC(C5)N6)nc(OCC56CCCN5CC(F)C6)nc4c3F)c12
- IC50 (second compound 0.0316 µM): 53.9 nM
- IC50 (second compound 0.1 µM): 43.2 nM
- IC50 (second compound 0.316 µM): 22.2 nM
- IC50 (second compound 1 µM): 14.8 nM
- IC50 (second compound 3.16 µM): 2.86 nM
- IC50 (second compound 10 µM): < 0.316 nM
- viability, T/C (second compound 0.0316 µM, first compound 0.000316 µM): 105%
- viability, T/C (second compound 0.0316 µM, first compound 0.001 µM): 114%
- viability, T/C (second compound 0.0316 µM, first compound 0.00316 µM): 89.6%
- viability, T/C (second compound 0.0316 µM, first compound 0.01 µM): 73.9%
- viability, T/C [1]: 51.4%
- viability, T/C [2]: 47.1%
- viability, T/C (second compound 0.1 µM, first compound 0.000316 µM): 108%
- viability, T/C (second compound 0.1 µM, first compound 0.001 µM): 113%
- viability, T/C (second compound 0.1 µM, first compound 0.00316 µM): 84.7%
- viability, T/C (second compound 0.1 µM, first compound 0.01 µM): 71.4%
- viability, T/C [3]: 53.2%
- viability, T/C [4]: 42.8%
- viability, T/C (second compound 0.316 µM, first compound 0.000316 µM): 104%
- viability, T/C (second compound 0.316 µM, first compound 0.001 µM): 106%
- viability, T/C (second compound 0.316 µM, first compound 0.00316 µM): 83.7%
- viability, T/C (second compound 0.316 µM, first compound 0.01 µM): 61.6%
- viability, T/C [5]: 46.1%
- viability, T/C [6]: 39.4%
- viability, T/C (second compound 1 µM, first compound 0.000316 µM): 83.6%
- viability, T/C (second compound 1 µM, first compound 0.001 µM): 93.1%
- viability, T/C (second compound 1 µM, first compound 0.00316 µM): 72.8%
- viability, T/C (second compound 1 µM, first compound 0.01 µM): 56.4%
- viability, T/C [7]: 39.6%
- viability, T/C [8]: 32.3%
- viability, T/C (second compound 3.16 µM, first compound 0.000316 µM): 56.4%
- viability, T/C (second compound 3.16 µM, first compound 0.001 µM): 60.4%
- viability, T/C (second compound 3.16 µM, first compound 0.00316 µM): 48.4%
- viability, T/C (second compound 3.16 µM, first compound 0.01 µM): 38.3%
- viability, T/C (second compound 3.16 µM, first compound 0.0316 µM): 36.8%
- viability, T/C (second compound 3.16 µM, first compound 0.1 µM): 22.9%
- viability, T/C (second compound 10 µM, first compound 0.000316 µM): 38.8%
- viability, T/C (second compound 10 µM, first compound 0.001 µM): 38.6%
- viability, T/C (second compound 10 µM, first compound 0.00316 µM): 28.8%
- viability, T/C (second compound 10 µM, first compound 0.01 µM): 26.9%
- viability, T/C (second compound 10 µM, first compound 0.0316 µM): 24.1%
- viability, T/C (second compound 10 µM, first compound 0.1 µM): 17%
